Values joined by “and” are separate entries in the source; they are usually repeats but may differ in a detail not shown here. Identical values can stand only once. Like-named read-outs stand apart in the source and are kept apart here. Where a SMILES comes first, the peptide text is derived from it. Where no end group is shown, it is not given here. The star is where a group is joined. Succinimide(1-Et,3-yl) = CCN1C(=O)CC(*)C1=O

The target in this assay is T1, human CRHR2 (Homo sapiens, UniProt Q13324).
T1 construct: expressed in transfected cells
T1 sequence (Q13324 1-411): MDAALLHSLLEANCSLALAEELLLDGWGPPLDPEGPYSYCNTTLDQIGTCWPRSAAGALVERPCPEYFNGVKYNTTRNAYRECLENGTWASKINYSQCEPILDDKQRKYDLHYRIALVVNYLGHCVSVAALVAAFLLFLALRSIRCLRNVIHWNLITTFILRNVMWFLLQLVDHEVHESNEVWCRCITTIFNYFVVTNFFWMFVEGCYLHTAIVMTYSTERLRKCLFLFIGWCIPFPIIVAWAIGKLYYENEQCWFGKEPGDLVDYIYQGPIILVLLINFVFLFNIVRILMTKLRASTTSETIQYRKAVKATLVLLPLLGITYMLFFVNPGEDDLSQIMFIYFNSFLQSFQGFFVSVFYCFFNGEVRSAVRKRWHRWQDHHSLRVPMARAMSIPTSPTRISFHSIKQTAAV
The assay is described as follows: cAMP assay, h-CRHR2 transfected SK-N-MC cells. It is filed as cell-based. The note with it: for EC50: read-out: pA50 (converted); for Log DR [M]: h-SCP control pA50 minus test compound pA50 within the same assay batch; for αmax: normalized to the maximum response to h-SCP. On the procedure: The concentration required for 50% maximum effect (A50) was 0.4 nM.
Human CRHR1 (accession number X72304) or CRHR2 (accession number U34587) were cloned into pcDNA3.1/Zeo expression vector and stably transfected into SK—N-MC cells by electroporation. Cells were maintained in MEM w/Earl's Salt with 10% FBS, 50 I.U. penicillin, 50 μg/ml streptomycin, 2 mM L-glutamine, 1 mM sodium pyruvate and 0.1 mM non-essential amino acids, 600 μg/ml G418. Cells were grown at 37° C. in 5% CO2
Cells were plated in 96-well tissue culture dishes (Biocoat from BD Biosciences) overnight at 50,000 cell/well. Cells were washed with PBS then resuspended in DMEM F-12 without phenol red, containing 10 μM isobutylmethylxanthine (IBMX). Cells were incubated with the peptides at concentrations ranging from 1 pM to 10 μM for 60 min at 37° Celsius. […] Forskolin (10 μM), a direct stimulant of adenylate cyclase, was used as positive control. The assays were stopped by the addition of 0.5 M HCl and mixing by orbital rotation for 2 h at 4° Celsius.
To assess the activity of the inventive polypeptide at the CRHR2, an intracellular cAMP measurement test using a Flash plate radioactive assay (Catalog No. Cus56088; Perkin Elmer, Mass., U.S.A.) was employed.
Transfected SK—N-MC cells were plated in 96-well Biocoat tissue culture dishes (BD Biosciences, San Jose, Calif., U.S.A) overnight at 50,000 cell/well. Cells were first washed with PBS and then suspended with DMEM/F-12 without phenol red, containing […]. Suspended cells were transferred into a 96-well flash plate coated with scintillant fluid. Cells were incubated with peptides ranging from 1 pM to 1 μM, for 60 min, at 37° Celsius. Forskolin at 10 μM was used as positive control. After ligand stimulation, cells were lysed by the addition of 0.5M HCl and mixed by orbital rotation for 2 h at 4° Celsius in order to release intracellular cAMP into the media.
Media containing released intracellular cAMP was transferred to a 96-well flash plate coated with scintillant fluid containing an anti-cAMP antibody. In this assay, intracellular cAMP competes with ^125I-labeled cAMP binding to the antibody. To generate a standard curve, cAMP ranging from 2.5 to 250 pmoles/ml was included in the experiment. [^125I]-cAMP was measured on a TopCount scintillation counter (Perkin Elmer, Mass., U.S.A).
Individual agonist concentration-response curve data were fitted to the Hill equation, see formula below, using GraphPad Prism (Graphpad Software, La Jolla, Calif., U.S.A.), to provide estimates of agonist concentration needed to generate one-half maximal response (A50), and the maximal asymptote (α) and Hill slope (nH) parameters. In this equation, [A] is the agonist concentration and E is the measured effect:
For display purposes the mean fitted parameter estimates were used to generate a single E/[A] curve shown superimposed on the mean experimental data. Potency estimates for agonists, pA50, are expressed as the negative logarithm of the midpoint of each curve and listed with their standard error of measurement (SEM). Logarithm base 10 of the agonist dose ratio (Log DR) values were calculated by subtraction of the test compound pA50 value from the corresponding h-SCP (SEQ ID NO:1) control pA50 value within the same assay batch. The SEM values of the Log DR values are given by the square root of the sum of the squared SEM values of the h-SCP (SEQ ID NO:1) control and test compound pA50 values.
Human and rat peptides (see Table 10) were used on the stimulation of h-CRHR1 or h-CRHR2 transfected SK—N-MC cells in the cAMP flash plate assay. Peptides were incubated for 1 hr at 37° Celsius. Curves were calculated using non-linear regression sigmoidal concentration-response analysis calculation in GraphPad Prism. The so obtained pA50 values are shown in Table 11 in addition to literature values. […]

The mark [1] stands for this setting: Table 13, cysteine mutation, N-ethylmaleimide capping, pegylation.
Setting [2] is: Table 12, amidation and N-terminal deletions, normalized to maximum response to h-SCP, 3-5 replicate experiments.

Take `CC[C@H](C)[C@H](NC(=O)[C@H](CCC(N)=O)NC(=O)[C@H](C)NC(=O)[C@H](CCSC)NC(=O)[C@H](CC(C)C)NC(=O)[C@H](Cc1c[nH]cn1)NC(=O)[C@H](C)NC(=O)[C@H](CSC1CC(=O)N(CC)C1=O)NC(=O)[C@H](C)NC(=O)[C@H](C)NC(=O)[C@H](C)NC(=O)[C@H](CCC(N)=O)NC(=O)[C@H](C)NC(=O)[C@H](CCCNC(=N)N)NC(=O)[C@H](CC(C)C)NC(=O)[C@H](CC(N)=O)NC(=O)[C@H](CCCCN)NC(=O)[C@H](C)NC(=O)[C@H](CCCCN)NC(=O)[C@H](C)NC(=O)[C@@H](NC(=O)[C@H](CC(N)=O)NC(=O)[C@H](Cc1ccccc1)NC(=O)[C@H](CC(C)C)NC(=O)[C@H](CC(C)C)NC(=O)[C@H](CC(N)=O)NC(=O)[C@H](CCSC)NC(=O)[C@@H](NC(=O)[C@H](CC(N)=O)NC(=O)[C@@H](NC(=O)[C@@H]1CCCN1C(=O)[C@@H](NC(=O)[C@H](CC(=O)O)NC(=O)[C@H](CC(C)C)NC(=O)[C@H](CO)NC(=O)[C@H](CC(C)C)NC(=O)[C@@H](NC(=O)[C@H](Cc1ccccc1)NC(=O)[C@H](CCCCN)NC(=O)[C@@H](N)[C@@H](C)O)[C@@H](C)O)C(C)C)[C@@H](C)O)[C@@H](C)CC)[C@@H](C)CC)C(N)=O` (some centres unmarked) [SEQ ID NO: 44, TKFTLSLDVPTNIMNLLFNIAKAKNLRAQAAAC(-NES)AH LMAQI-NH2] (H-TKFTLSLDVPTNIMNLLFNIAKAKNLRAQAAAC(Succinimide(1-Et,3-yl))AHLMAQI-NH2): the EC50 under setting [1] was around 31.6 nM. The “Log DR [M]” value (Table 13) is around 1.97.
For “TKFTLSLDVCTNIMNLLFNIAKAKNLRAQAAANAHLMAQI-NH2 [SEQ ID NO: 11, TKFTLSLDVCTNIMNLLFNIAKAKNLRAQAAANAHLMAQI-NH2]”, in that order: 1.74 nM and 0.82.
Where the note is “Table 12”, “KFTLSLDVPTNIMNLLFNIAKAKNLRAQAAANAHLMAQI-NH2 [SEQ ID NO: 107, KFTLSLDVPTNIMNLLFNIAKAKNLRAQAAANAHLMAQI-NH2]” yielded a nH of 1.07 and a αmax of 111.3. Besides, the EC50 under setting [2] was 0.575 nM and 0.562 nM.
With “TKFTLSLDVPTNIMNLLFNIAKAKNLRAQAAANAHLMACI-NH2 [SEQ ID NO: 40, TKFTLSLDVPTNIMNLLFNIAKAKNLRAQAAANAHLMACI-NH2]”, the EC50 under setting [1] was 0.832 nM. In addition, the “Log DR [M]” value (Table 13) is reported as 0.55.
Take “TKFTLSLDVPTNIMNLLFNIAKACNLRAQAAANAHLMAQI-NH2 [SEQ ID NO: 25, TKFTLSLDVPTNIMNLLFNIAKACNLRAQAAANAHLMAQI-NH2]”: under setting [1], the EC50 is 0.676 nM. Also, the “Log DR [M]” value (Table 13) came to 0.35.
Turning to “TKFTLCLDVPTNIMNLLFNIAKAKNLRAQAAANAHLMAQI-NH2 [SEQ ID NO: 7, TKFTLCLDVPTNIMNLLFNIAKAKNLRAQAAANAHLMAQI-NH2]”, the EC50 under setting [1] is 25.1 nM. The “Log DR [M]” value (Table 13) is 2.08.
For “TKFTLSLDVPTNIMNLLFNIAKAKNLRACAAANAHLMAQI-NH2 [SEQ ID NO: 30, TKFTLSLDVPTNIMNLLFNIAKAKNLRACAAANAHLMAQI-NH2]”, in that order: 3.98 nM and 1.28.
As to “TKFTLSLDVPTNICNLLFNIAKAKNLRAQAAANAHLMAQI-NH2 [SEQ ID NO: 15, TKFTLSLDVPTNICNLLFNIAKAKNLRAQAAANAHLMAQI-NH2]”, under setting [1], the EC50 was 2.09 nM. Besides, the “Log DR [M]” value (Table 13) worked out at 0.90.
Consider “TKFTLSLDVPTNIMNLLFNIAKAKNLRAQAAANAHLMAQI-OH [SEQ ID NO: 113, TKFTLSLDVPTNIMNLLFNIAKAKNLRAQAAANAHLMAQI]”, for which the “fold less potent than the amidated parent peptide” value was “approximately 200 fold”. Besides, where the note is “Table 12”, the nH was 1.07 and the αmax is on record as 107.4. Also, the EC50 under setting [2] is 79.4 nM.
On to “H-TKFTLSLDVPTNIMNLLFNIAKAKNLRCQAAANAHLMAQI-NH2 [SEQ ID NO: 29, TKFTLSLDVPTNIMNLLFNIAKAKNLRCQAAANAHLMAQI-NH2]”, for which, under setting [1], the EC50 is 0.339 nM. Further, the “Log DR [M]” value (Table 13) was 0.00.
Turning to `CC[C@H](C)[C@H](NC(=O)[C@H](CCC(N)=O)NC(=O)[C@H](C)NC(=O)[C@H](CCSC)NC(=O)[C@H](CC(C)C)NC(=O)[C@H](Cc1c[nH]cn1)NC(=O)[C@H](C)NC(=O)[C@H](CC(N)=O)NC(=O)[C@H](C)NC(=O)[C@H](C)NC(=O)[C@H](C)NC(=O)[C@H](CCC(N)=O)NC(=O)[C@H](C)NC(=O)[C@H](CCCNC(=N)N)NC(=O)[C@H](CC(C)C)NC(=O)[C@H](CC(N)=O)NC(=O)[C@H](CCCCN)NC(=O)[C@H](C)NC(=O)[C@H](CCCCN)NC(=O)[C@H](C)NC(=O)[C@@H](NC(=O)[C@H](CC(N)=O)NC(=O)[C@H](Cc1ccccc1)NC(=O)[C@H](CSC1CC(=O)N(CC)C1=O)NC(=O)[C@H](CC(C)C)NC(=O)[C@H](CC(N)=O)NC(=O)[C@H](CCSC)NC(=O)[C@@H](NC(=O)[C@H](CC(N)=O)NC(=O)[C@@H](NC(=O)[C@@H]1CCCN1C(=O)[C@@H](NC(=O)[C@H](CC(=O)O)NC(=O)[C@H](CC(C)C)NC(=O)[C@H](CO)NC(=O)[C@H](CC(C)C)NC(=O)[C@@H](NC(=O)[C@H](Cc1ccccc1)NC(=O)[C@H](CCCCN)NC(=O)[C@@H](N)[C@@H](C)O)[C@@H](C)O)C(C)C)[C@@H](C)O)[C@@H](C)CC)[C@@H](C)CC)C(N)=O` (some centres unmarked) [SEQ ID NO: 53, TKFTL SLDVP TNIMN LC(-NES)FNI AKAKN LRAQA AANAH LMAQI-NH2] (H-TKFTLSLDVPTNIMNLC(Succinimide(1-Et,3-yl))FNIAKAKNLRAQAAANAHLMAQI-NH2), the EC50 under setting [1] is around 56.2 nM. Also, the “Log DR [M]” value (Table 13) is listed as around 2.22.
The corresponding values for “TKFTLSLDVPTCIMNLLFNIAKAKNLRAQAAANAHLMAQI-NH2 [SEQ ID NO: 13, TKFTLSLDVPTCIMNLLFNIAKAKNLRAQAAANAHLMAQI-NH2]” are 0.257 nM and −0.01.
On to “TKFTLSLDVPTNIMNLCFNIAKAKNLRAQAAANAHLMAQI-NH2 [SEQ ID NO: 18, TKFTLSLDVPTNIMNLCFNIAKAKNLRAQAAANAHLMAQI-NH2]”, for which the EC50 under setting [1] was 3.89 nM. For the setting “Table 13”, the “Log DR [M]” value is 1.11.
“TKCTLSLDVPTNIMNLLFNIAKAKNLRAQAAANAHLMAQI-NH2 [SEQ ID NO: 4, TKCTLSLDVPTNIMNLLFNIAKAKNLRAQAAANAHLMAQI-NH2]”: the EC50 under setting [1] is 2.24 nM. In addition, the “Log DR [M]” value (Table 13) is on record as 1.03.
Take “TKFTLSLDVPCNIMNLLFNIAKAKNLRAQAAANAHLMAQI-NH2 [SEQ ID NO: 12, TKFTLSLDVPCNIMNLLFNIAKAKNLRAQAAANAHLMAQI-NH2]”: the EC50 under setting [1] was 13.8 nM. For the same compound, the “Log DR [M]” value (Table 13) came to 1.72.
For “TKFTLSLDVPTNIMNLLFNIAKAKCLRAQAAANAHLMAQI-NH2 [SEQ ID NO: 26, TKFTLSLDVPTNIMNLLFNIAKAKCLRAQAAANAHLMAQI-NH2]”, in that order: 0.363 nM and 0.08.

For the origin of these results see patent US20110105397A1, “METHOD FOR TREATING HEART FAILURE WITH STRESSCOPIN-LIKE PEPTIDES” (priority 2009, published 2011).
